Here are results for seven molecules from paper PMC4265264 (Hepatology (Baltimore, Md.), 2014).

A word on the IC50: it is the concentration that inhibits the measured activity by half.

The test system of test [1] is HBV. Put plainly: HBV replication in HepAD38 cells, southern blot of core particle HBV DNA. Type of test: cell-based, hepatitis B virus. Particulars: lamivudine 1 μM, 6 days.
Test [2] concerns HBV. Put plainly: HBV infection of HepG2 cells overexpressing NTCP. Type of test: cell-based, hepatitis B virus. Particulars: pretreated 2 h, HBV 16 h.
Test [3] deals with HBV. Put plainly: HBV attachment and internalization assay in HepaRG cells. It is filed as cell-based, hepatitis B virus. The settings on record: CsA 4 μM.
The next test deals with HBV particles. Put plainly: Pretreatment of HBV particles with compounds, then infection of HepaRG cells. The settings on record: 30 min 37°C, compound removed by ultrafiltration, HBs at 12 days. It is filed as cell-based, hepatitis B virus.
Test [4] deals with HBV. Put plainly: HBV infection. It is filed as cell-based, hepatitis B virus. The settings on record: HepaRG.
The test system of test [5] is HBV. Put plainly: HBV infection of primary human hepatocytes. It is filed as cell-based, hepatitis B virus. The settings on record: CsA 4 μM, HBs in medium or HBV DNA in cells at 12 days.
Another test deals with HCVpp. Put plainly: HCV pseudoparticle. Type of test: cell-based, hepatitis C virus. Particulars: Huh-7.5.1 cells pretreated 1 h, HCVpp 4 h, read at 72 h.
Test [6] deals with calcineurin/NF-AT pathway. Put plainly: Calcineurin/NF-AT reporter assay in Jurkat cells. The settings on record: pNF-AT-luc, PMA and ionomycin. It is filed as cell-based, human. Background: Reporter assays use an easily measured gene product as a stand-in for the process of interest.
A further test has as its system HCV. The settings on record: read-out: anti-HCV replication activity (IC50); cited from earlier work.

Turning to `Nc1ccn([C@@H]2CS[C@H](CO)O2)c(=O)n1` [lamivudine], in the test with HBV [1], the “HBV DNA in HepAD38 cells” value is “drastically decreased HBV DNAs”.

As for cyclosporin A [CsA], the “HBs and HBe secretion of HBV-infected HepG2-NTCP cells” value in the test with HBV [2] is “reduced HBs and HBe secretion”. The “Attached HBV DNA (attachment assay)” value in the test on HBV [3] (4°C 3 h, real-time PCR) is listed as “slightly reduced the amount of attached HBV DNA, although the effect was not statistically significant”. Besides, the “Internalized HBV DNA (internalization assay)” value with HBV [3] (37°C 16 h after attachment, trypsinized) is reported as “significant reduction of HBV DNA”. In addition, the “HBV infectivity after preincubation of HBV with compound” value in the test with HBV particles is given as “did not affect HBV infectivity”. Besides, in the test with HBV [4] (CsA 4 μM, 12 days postinfection), the “HBc protein, HBV DNA and cccDNA in the cells and HBe in the medium” value was “significantly decreased”. For the same molecule, the “HBs and HBe production, compound added during HBV infection (time of addition)” value in the test on HBV [4] (CsA 4 μM, Fig. 2E-b) was “decreased HBs and HBe production”. For the same molecule, the “HBs and HBe production, compound added after HBV infection (time of addition)” value in the test with HBV [4] (CsA 4 μM, Fig. 2E-c) is “did not have an anti‐HBV effect”. For the same molecule, the “Dose-response of HBs (and HBe) secretion” value with HBV [4] (protocol Fig. 1A, CsA 0.5-4 μM, analogs 0.25-4 μM) is “decreased HBs and HBe secreted from the infected cells”. The “Infection of different HBV genotypes into PHHs” value in the test on HBV [5] is listed as “reduced the infection of HBV genotype A, C, or D”. The “HCV entry (HCVpp luciferase activity)” value in the test with HCVpp is “did not affect the entry of HCV”. For the same molecule, in test [6], the “Calcineurin (CN)/NF-AT pathway inhibition” value is on record as “can inhibit CN”.

As to heparin, the “HBV infectivity after preincubation of HBV with compound” value in the test on HBV particles is “antagonizing effect”. Also, the “HCV entry (HCVpp luciferase activity)” value in the test on HCVpp was “inhibition of HCV entry”.

On to Alisporivir, for which the IC50 with HCV was 0.22 µM.

Turning to PSC833, the “Calcineurin (CN)/NF-AT pathway inhibition” value in test [6] was “inactive for CN inhibition”.

Take `C=CC[C@@H]1/C=C(\C)C[C@H](C)C[C@H](OC)[C@H]2O[C@@](O)(C(=O)C(=O)N3CCCC[C@H]3C(=O)O[C@H](/C(C)=C/[C@@H]3CC[C@@H](O)[C@H](OC)C3)[C@H](C)[C@@H](O)CC1=O)[C@H](C)C[C@@H]2OC` [FK506]: in test [6], the “Calcineurin (CN)/NF-AT pathway inhibition” value is on record as “can inhibit CN”.

Consider `CO/C1=C\C(C)=C\[C@@H](C)[C@@H](O)[C@@H](C)C/C(C)=C/C=C/[C@H](OC)[C@@H]([C@@H](C)[C@@H](O)[C@H](C)[C@@]2(O)C[C@@H](O)[C@H](C)[C@@H](C(C)C)O2)OC1=O` [bafilomycin A1], for which the “HCV entry (HCVpp luciferase activity)” value in the test with HCVpp is given as “inhibition of HCV entry”.
